Experimental data from PMC10482691, “LTP induction by structural rather than enzymatic functions of CaMKII” (Nature, 2023).
Values joined by “and” are separate entries in the source; they are usually repeats but may differ in a detail not shown here. Equal values may be shown once.

What was measured:
PKG1α(h) = PKG1α(h) (Homo sapiens, UniProt Q13976); experiment: Kinase selectivity panel (residual activity at 1 μM); assay type: biochemical; conditions: inhibitor at 1 μM; read-out: residual kinase activity in % of maximal activity
CaMKI(h) = CaMKI(h) (Homo sapiens, UniProt Q14012); experiment: as above; assay type: biochemical; conditions: inhibitor at 1 μM; read-out: residual kinase activity in % of maximal activity
CDK2/cyclinE(h) = CDK2/cyclinE(h) (Homo sapiens, UniProt P24941); experiment: as above; assay type: biochemical; conditions: inhibitor at 1 μM
PKBγ(h) = PKBγ(h) (Homo sapiens, UniProt Q9Y243); experiment: as above; assay type: biochemical; conditions: inhibitor at 1 μM; read-out: residual kinase activity in % of maximal activity
FGFR1(h) = FGFR1(h) (Homo sapiens, UniProt P11362); experiment: as above; assay type: biochemical; conditions: inhibitor at 1 μM; read-out: residual kinase activity in % of maximal activity
Pim-3(h) = Pim-3(h) (Homo sapiens, UniProt Q86V86); experiment: as above; assay type: biochemical; conditions: inhibitor at 1 μM; read-out: residual kinase activity in % of maximal activity
PDK1(h) = PDK1(h) (Homo sapiens, UniProt O15530); experiment: as above; assay type: biochemical; conditions: inhibitor at 1 μM; read-out: residual kinase activity in % of maximal activity
PAK2(h) = PAK2(h) (Homo sapiens, UniProt Q13177); experiment: as above; assay type: biochemical; conditions: inhibitor at 1 μM; read-out: residual kinase activity in % of maximal activity
[1] = target: PI3 Kinase (p110a/p85a)(h) (Homo sapiens, UniProt P42336); experiment: as above; assay type: biochemical; conditions: inhibitor at 1 μM; read-out: residual kinase activity in % of maximal activity
JAK3(h) = JAK3(h) (Homo sapiens, UniProt P52333); experiment: as above; assay type: biochemical; conditions: inhibitor at 1 μM; read-out: residual kinase activity in % of maximal activity
GSK3α(h) = GSK3α(h) (Homo sapiens, UniProt P49840); experiment: as above; assay type: biochemical; conditions: inhibitor at 1 μM; read-out: residual kinase activity in % of maximal activity
PKG1β(h) = PKG1β(h) (Homo sapiens, UniProt Q13976); experiment: as above; assay type: biochemical; conditions: inhibitor at 1 μM; read-out: residual kinase activity in % of maximal activity
cKit(h) = cKit(h) (Homo sapiens, UniProt P10721); experiment: as above; assay type: biochemical; conditions: inhibitor at 1 μM; read-out: residual kinase activity in % of maximal activity
Aurora-C(h) = Aurora-C(h) (Homo sapiens, UniProt Q9UQB9); experiment: as above; assay type: biochemical; conditions: inhibitor at 1 μM; read-out: residual kinase activity in % of maximal activity
[2] = system: GFP–CaMKII in rat hippocampal neurons; experiment: cLTP-induced CaMKII synaptic enrichment in dissociated hippocampal cultures (GFP–CaMKII WT); assay type: cell-based; conditions: AS105
MAPK1(h) = MAPK1(h) (Homo sapiens, UniProt P27361); experiment: Kinase selectivity panel (residual activity at 1 μM); assay type: biochemical; conditions: inhibitor at 1 μM; read-out: residual kinase activity in % of maximal activity
PKCα(h) = PKCα(h) (Homo sapiens, UniProt P17252); experiment: as above; assay type: biochemical; conditions: inhibitor at 1 μM; read-out: residual kinase activity in % of maximal activity
AMPKα1(h) = AMPKα1(h) (Homo sapiens, UniProt Q13131); experiment: as above; assay type: biochemical; conditions: inhibitor at 1 μM; read-out: residual kinase activity in % of maximal activity
CaMKIIβ(h) = CaMKIIβ(h) (Homo sapiens, UniProt Q13554); experiment: as above; assay type: biochemical; conditions: inhibitor at 1 μM; read-out: residual kinase activity in % of maximal activity
Ret(h) = Ret(h) (Homo sapiens, UniProt P07949); experiment: as above; assay type: biochemical; conditions: inhibitor at 1 μM; read-out: residual kinase activity in % of maximal activity
MAPK2(h) = MAPK2(h) (Homo sapiens, UniProt P28482); experiment: as above; assay type: biochemical; conditions: inhibitor at 1 μM; read-out: residual kinase activity in % of maximal activity
PKCδ(h) = PKCδ(h) (Homo sapiens, UniProt Q05655); experiment: as above; assay type: biochemical; conditions: inhibitor at 1 μM; read-out: residual kinase activity in % of maximal activity
Pim-1(h) = Pim-1(h) (Homo sapiens, UniProt P11309); experiment: as above; assay type: biochemical; conditions: inhibitor at 1 μM; read-out: residual kinase activity in % of maximal activity
CaMKIV(h) = CaMKIV(h) (Homo sapiens, UniProt Q16566); experiment: as above; assay type: biochemical; conditions: inhibitor at 1 μM; read-out: residual kinase activity in % of maximal activity
JAK2(h) = JAK2(h) (Homo sapiens, UniProt O60674); experiment: as above; assay type: biochemical; conditions: inhibitor at 1 μM
ROCK-II(h) = ROCK-II(h) (Homo sapiens, UniProt O75116); experiment: as above; assay type: biochemical; conditions: inhibitor at 1 μM; read-out: residual kinase activity in % of maximal activity
SAPK2a(h) = SAPK2a(h) (Homo sapiens, UniProt Q16539); experiment: as above; assay type: biochemical; conditions: inhibitor at 1 μM
CaMKIIγ(h) = CaMKIIγ(h) (Homo sapiens, UniProt Q13555); experiment: as above; assay type: biochemical; conditions: inhibitor at 1 μM; read-out: residual kinase activity in % of maximal activity
[3] = target: purified CaMKIIα binding to GST–GluN2B-c WT (Homo sapiens, UniProt Q9UQM7); experiment: CaMKII binding to immobilized GST–GluN2B-c in vitro
Protocol: CaMKII–GluN2B binding assays were done as described[9],[13],[25]. Briefly, GST–GluN2B-c tail (GST–2BC) was immobilized on anti-GST antibody-coated microtiter plates (Thermo Scientific), blocked for 30 min with 5% BSA and then overlaid with […] CaMKII (subunit concentration) in PIPES-buffered saline (pH 7.2) containing 2 mM Ca^2+, 1 μM CaM, 1 mM Mg^2+, 0.1% BSA and 0.1% Tween-20 for 20 min at room temperature. […] After extensive washes in buffer containing 1 mM EGTA, GST–2BC and bound CaMKII were eluted for 10 min in SDS loading buffer at 95 °C. Bound CaMKII was measured via immunoblot.

KDR(h) = KDR(h) (Homo sapiens, UniProt P35968); experiment: Kinase selectivity panel (residual activity at 1 μM); assay type: biochemical; conditions: inhibitor at 1 μM; read-out: residual kinase activity in % of maximal activity
Flt3(h) = Flt3(h) (Homo sapiens, UniProt P36888); experiment: as above; assay type: biochemical; conditions: inhibitor at 1 μM; read-out: residual kinase activity in % of maximal activity
PDGFRβ(h) = PDGFRβ(h) (Homo sapiens, UniProt P09619); experiment: as above; assay type: biochemical; conditions: inhibitor at 1 μM; read-out: residual kinase activity in % of maximal activity
FAK(h) = FAK(h) (Homo sapiens, UniProt Q05397); experiment: as above; assay type: biochemical; conditions: inhibitor at 1 μM; read-out: residual kinase activity in % of maximal activity
mTOR(h) = mTOR(h) (Homo sapiens, UniProt P42345); experiment: as above; assay type: biochemical; conditions: inhibitor at 1 μM; read-out: residual kinase activity in % of maximal activity
CaMKIIδ(h) = CaMKIIδ(h) (Homo sapiens, UniProt Q13557); experiment: as above; assay type: biochemical; conditions: inhibitor at 1 μM; read-out: residual kinase activity in % of maximal activity
CDK5/p35(h) = CDK5/p35(h) (Homo sapiens, UniProt Q00535); experiment: as above; assay type: biochemical; conditions: inhibitor at 1 μM; read-out: residual kinase activity in % of maximal activity
JNK2α2(h) = JNK2α2(h) (Homo sapiens, UniProt P45984); experiment: as above; assay type: biochemical; conditions: inhibitor at 1 μM
GSK3β(h) = GSK3β(h) (Homo sapiens, UniProt P49841); experiment: as above; assay type: biochemical; conditions: inhibitor at 1 μM; read-out: residual kinase activity in % of maximal activity
SGK(h) = SGK(h) (Homo sapiens, UniProt O00141); experiment: as above; assay type: biochemical; conditions: inhibitor at 1 μM; read-out: residual kinase activity in % of maximal activity
Arg(h) = Arg(h) (Homo sapiens, UniProt P42684); experiment: as above; assay type: biochemical; conditions: inhibitor at 1 μM; read-out: residual kinase activity in % of maximal activity
IGF-1R(h) = IGF-1R(h) (Homo sapiens, UniProt P08069); experiment: as above; assay type: biochemical; conditions: inhibitor at 1 μM; read-out: residual kinase activity in % of maximal activity
MEK1(h) = MEK1(h) (Homo sapiens, UniProt Q02750); experiment: as above; assay type: biochemical; conditions: inhibitor at 1 μM; read-out: residual kinase activity in % of maximal activity
p70S6K(h) = p70S6K(h) (Homo sapiens, UniProt P23443); experiment: as above; assay type: biochemical; conditions: inhibitor at 1 μM; read-out: residual kinase activity in % of maximal activity

Chain of PKG1β(h) (Q13976 1-686 isoform Q13976-2): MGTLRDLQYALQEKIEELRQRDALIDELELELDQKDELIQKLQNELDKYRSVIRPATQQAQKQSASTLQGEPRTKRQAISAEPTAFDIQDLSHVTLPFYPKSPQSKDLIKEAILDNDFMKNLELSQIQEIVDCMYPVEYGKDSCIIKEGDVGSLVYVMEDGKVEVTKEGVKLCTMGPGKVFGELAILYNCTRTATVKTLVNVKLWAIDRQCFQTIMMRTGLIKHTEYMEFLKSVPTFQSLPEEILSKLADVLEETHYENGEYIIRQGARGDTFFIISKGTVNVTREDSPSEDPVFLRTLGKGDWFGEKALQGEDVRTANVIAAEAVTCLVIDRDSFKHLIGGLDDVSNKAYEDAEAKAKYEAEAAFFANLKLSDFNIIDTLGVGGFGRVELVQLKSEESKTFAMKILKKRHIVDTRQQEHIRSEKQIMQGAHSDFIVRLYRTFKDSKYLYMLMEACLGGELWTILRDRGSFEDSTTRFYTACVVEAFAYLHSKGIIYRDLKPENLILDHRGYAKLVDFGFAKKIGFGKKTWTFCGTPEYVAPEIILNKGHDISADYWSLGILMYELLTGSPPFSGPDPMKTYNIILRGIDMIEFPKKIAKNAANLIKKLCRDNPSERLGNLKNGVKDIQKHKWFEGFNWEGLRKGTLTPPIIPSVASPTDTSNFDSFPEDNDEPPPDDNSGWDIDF
Chain of MEK1(h) (Q02750 whole entry): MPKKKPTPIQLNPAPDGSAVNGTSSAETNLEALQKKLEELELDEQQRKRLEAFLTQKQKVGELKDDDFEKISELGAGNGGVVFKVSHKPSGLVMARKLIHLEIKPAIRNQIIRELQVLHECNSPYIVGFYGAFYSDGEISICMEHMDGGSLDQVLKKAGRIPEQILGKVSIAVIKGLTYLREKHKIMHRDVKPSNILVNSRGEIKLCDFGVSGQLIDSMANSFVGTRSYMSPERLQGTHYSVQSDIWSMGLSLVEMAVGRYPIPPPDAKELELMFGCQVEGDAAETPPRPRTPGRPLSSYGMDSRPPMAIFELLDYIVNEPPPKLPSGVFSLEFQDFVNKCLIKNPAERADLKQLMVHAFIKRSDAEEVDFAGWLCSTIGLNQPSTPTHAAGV
Chain of JNK2α2(h) (P45984 whole entry): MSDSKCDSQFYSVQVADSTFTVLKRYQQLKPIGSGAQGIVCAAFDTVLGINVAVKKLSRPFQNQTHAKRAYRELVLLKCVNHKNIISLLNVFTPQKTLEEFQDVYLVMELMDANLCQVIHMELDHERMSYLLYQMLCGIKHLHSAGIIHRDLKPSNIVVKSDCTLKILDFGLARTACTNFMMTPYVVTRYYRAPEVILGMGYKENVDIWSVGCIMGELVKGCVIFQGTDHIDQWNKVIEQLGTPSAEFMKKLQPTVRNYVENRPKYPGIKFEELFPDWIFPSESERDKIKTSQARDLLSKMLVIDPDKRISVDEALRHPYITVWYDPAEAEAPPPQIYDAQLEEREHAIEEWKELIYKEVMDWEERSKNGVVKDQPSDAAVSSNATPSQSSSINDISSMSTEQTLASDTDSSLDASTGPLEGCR
Chain of CDK5/p35(h) (Q00535 whole entry): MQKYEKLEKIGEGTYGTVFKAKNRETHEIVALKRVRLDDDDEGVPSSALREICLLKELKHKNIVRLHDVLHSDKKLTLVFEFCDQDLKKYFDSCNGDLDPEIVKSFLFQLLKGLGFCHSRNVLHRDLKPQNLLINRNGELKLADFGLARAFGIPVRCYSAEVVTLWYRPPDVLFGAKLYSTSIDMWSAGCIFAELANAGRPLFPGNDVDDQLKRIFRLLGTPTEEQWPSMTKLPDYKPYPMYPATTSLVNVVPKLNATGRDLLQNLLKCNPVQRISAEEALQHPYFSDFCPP
Chain of CDK5/p35(h) (Q15078 whole entry partner): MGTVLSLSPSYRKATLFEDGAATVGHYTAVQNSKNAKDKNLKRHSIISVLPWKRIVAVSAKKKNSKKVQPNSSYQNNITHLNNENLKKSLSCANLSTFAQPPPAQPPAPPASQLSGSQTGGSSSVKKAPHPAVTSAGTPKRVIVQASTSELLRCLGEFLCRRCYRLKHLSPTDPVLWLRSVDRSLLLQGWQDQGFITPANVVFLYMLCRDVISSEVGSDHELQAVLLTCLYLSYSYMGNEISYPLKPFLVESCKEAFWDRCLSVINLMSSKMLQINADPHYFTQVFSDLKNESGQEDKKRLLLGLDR
Chain of MAPK1(h) (P27361 whole entry): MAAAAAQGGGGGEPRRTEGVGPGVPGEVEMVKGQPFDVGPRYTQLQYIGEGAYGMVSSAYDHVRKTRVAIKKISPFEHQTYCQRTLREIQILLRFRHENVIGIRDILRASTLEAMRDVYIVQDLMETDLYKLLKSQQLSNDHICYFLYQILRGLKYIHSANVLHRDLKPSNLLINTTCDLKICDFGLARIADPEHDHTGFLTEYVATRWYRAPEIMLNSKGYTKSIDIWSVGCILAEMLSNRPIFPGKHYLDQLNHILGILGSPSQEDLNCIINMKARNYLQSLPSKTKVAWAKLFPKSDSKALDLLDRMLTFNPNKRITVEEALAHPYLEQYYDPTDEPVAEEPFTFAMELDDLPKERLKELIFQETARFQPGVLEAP
Chain of JAK3(h) (P52333 whole entry): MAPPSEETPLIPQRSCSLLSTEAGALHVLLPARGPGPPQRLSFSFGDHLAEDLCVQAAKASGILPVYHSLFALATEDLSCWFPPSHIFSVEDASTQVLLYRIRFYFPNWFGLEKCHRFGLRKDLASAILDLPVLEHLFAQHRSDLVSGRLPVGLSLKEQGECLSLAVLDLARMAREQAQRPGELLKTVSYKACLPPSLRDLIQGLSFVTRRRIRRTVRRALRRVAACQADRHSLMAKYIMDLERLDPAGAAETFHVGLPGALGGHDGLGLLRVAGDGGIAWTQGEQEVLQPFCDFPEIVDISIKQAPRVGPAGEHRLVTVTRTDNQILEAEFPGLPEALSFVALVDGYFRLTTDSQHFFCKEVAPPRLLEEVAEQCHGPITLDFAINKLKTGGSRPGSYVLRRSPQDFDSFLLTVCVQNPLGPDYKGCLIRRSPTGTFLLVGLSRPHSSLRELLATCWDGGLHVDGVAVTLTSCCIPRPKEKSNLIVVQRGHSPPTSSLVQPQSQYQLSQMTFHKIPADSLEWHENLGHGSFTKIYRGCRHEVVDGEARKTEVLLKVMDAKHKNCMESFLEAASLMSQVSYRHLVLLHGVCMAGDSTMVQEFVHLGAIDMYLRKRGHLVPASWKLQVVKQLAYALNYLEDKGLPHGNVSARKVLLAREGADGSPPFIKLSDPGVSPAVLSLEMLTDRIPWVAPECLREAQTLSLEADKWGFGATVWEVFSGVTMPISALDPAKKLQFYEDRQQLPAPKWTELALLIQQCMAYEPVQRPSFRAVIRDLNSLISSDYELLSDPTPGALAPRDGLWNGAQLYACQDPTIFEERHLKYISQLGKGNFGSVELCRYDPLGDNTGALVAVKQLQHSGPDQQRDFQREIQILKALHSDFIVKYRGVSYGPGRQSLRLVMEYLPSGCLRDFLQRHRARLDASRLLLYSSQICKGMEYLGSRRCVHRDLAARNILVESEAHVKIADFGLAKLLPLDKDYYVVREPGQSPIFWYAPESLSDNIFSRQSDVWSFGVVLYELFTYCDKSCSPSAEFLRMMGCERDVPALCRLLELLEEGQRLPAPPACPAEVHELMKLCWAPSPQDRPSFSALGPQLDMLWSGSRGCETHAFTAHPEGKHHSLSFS
Chain of GSK3β(h) (P49841 whole entry): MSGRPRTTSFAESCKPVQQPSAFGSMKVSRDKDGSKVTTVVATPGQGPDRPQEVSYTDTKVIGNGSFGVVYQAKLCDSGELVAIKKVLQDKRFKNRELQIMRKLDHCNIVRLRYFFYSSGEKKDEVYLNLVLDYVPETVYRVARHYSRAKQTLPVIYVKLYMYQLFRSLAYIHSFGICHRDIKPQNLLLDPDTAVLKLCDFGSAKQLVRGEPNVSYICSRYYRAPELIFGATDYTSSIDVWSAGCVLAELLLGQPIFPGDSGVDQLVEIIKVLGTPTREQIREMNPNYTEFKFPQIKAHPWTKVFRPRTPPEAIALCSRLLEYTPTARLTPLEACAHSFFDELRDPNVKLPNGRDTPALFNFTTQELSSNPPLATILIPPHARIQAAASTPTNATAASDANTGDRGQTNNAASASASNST
Chain of CaMKIIδ(h) (Q13557 whole entry): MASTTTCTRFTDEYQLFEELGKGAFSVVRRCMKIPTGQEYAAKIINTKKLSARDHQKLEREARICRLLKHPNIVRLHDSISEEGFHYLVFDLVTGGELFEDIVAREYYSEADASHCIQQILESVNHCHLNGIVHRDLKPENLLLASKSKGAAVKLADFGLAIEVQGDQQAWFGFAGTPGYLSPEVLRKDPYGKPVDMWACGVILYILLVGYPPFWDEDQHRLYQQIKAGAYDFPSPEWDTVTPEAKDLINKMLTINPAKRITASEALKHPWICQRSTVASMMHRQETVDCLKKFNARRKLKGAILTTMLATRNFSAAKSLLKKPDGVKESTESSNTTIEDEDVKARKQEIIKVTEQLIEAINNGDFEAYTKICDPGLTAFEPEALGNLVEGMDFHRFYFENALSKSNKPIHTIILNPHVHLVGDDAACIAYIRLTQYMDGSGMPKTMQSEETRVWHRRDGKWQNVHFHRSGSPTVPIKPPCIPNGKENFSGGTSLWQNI
Chain of Pim-1(h) (P11309 whole entry): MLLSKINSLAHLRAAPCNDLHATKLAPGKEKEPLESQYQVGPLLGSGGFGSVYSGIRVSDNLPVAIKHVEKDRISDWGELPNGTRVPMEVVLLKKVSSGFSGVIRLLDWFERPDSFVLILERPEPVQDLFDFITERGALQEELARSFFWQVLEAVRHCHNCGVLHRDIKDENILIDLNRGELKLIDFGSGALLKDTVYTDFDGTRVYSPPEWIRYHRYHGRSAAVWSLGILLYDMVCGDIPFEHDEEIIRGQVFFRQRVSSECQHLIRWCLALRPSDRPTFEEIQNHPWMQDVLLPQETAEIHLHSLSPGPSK

- remaining activity at 1 µM (PKG1α(h)): 61%
- remaining activity at 1 µM (CaMKI(h)): 83%
- residual kinase activity in % of maximal activity (CDK2/cyclinE(h)): 2%
- remaining activity at 1 µM (PKBγ(h)): 76%
- remaining activity at 1 µM (FGFR1(h)): 91%
- remaining activity at 1 µM (Pim-3(h)): 109%
- remaining activity at 1 µM (PDK1(h)): 109%
- remaining activity at 1 µM (PAK2(h)): 104%
- remaining activity at 1 µM [1]: 96%
- remaining activity at 1 µM (JAK3(h)): 89%
- remaining activity at 1 µM (GSK3α(h)): 6%
- remaining activity at 1 µM (PKG1β(h)): 68%
- remaining activity at 1 µM (cKit(h)): 91%
- remaining activity at 1 µM (Aurora-C(h)): 57%
- remaining activity at 1 µM (MAPK1(h)): 105%
- remaining activity at 1 µM (PKCα(h)): 51%
- remaining activity at 1 µM (AMPKα1(h)): 38%
- remaining activity at 1 µM (CaMKIIβ(h)): 6%
- remaining activity at 1 µM (Ret(h)): 55%
- remaining activity at 1 µM (MAPK2(h)): 106%
- remaining activity at 1 µM (PKCδ(h)): 73%
- remaining activity at 1 µM (Pim-1(h)): 69%
- remaining activity at 1 µM (CaMKIV(h)): 101%
- residual kinase activity in % of maximal activity (JAK2(h)): 134%
- remaining activity at 1 µM (ROCK-II(h)): 43%
- residual kinase activity in % of maximal activity (SAPK2a(h)): 99%
- remaining activity at 1 µM (CaMKIIγ(h)): 2%
- effect on GluN2B binding ([3]; AS105): without inhibiting
- bound CaMKIIα (immunoblot, relative) ([3]; Ca2+/CaM, 10 μM AS105, no nucleotide): 2.79 and 2.715 and 1.563
- remaining activity at 1 µM (KDR(h)): 28%
- remaining activity at 1 µM (Flt3(h)): 2%
- remaining activity at 1 µM (PDGFRβ(h)): 80%
- remaining activity at 1 µM (FAK(h)): 75%
- remaining activity at 1 µM (mTOR(h)): 102%
- remaining activity at 1 µM (CaMKIIδ(h)): 2%
- remaining activity at 1 µM (CDK5/p35(h)): 1%
- residual kinase activity in % of maximal activity (JNK2α2(h)): 79%
- remaining activity at 1 µM (GSK3β(h)): 11%
- remaining activity at 1 µM (SGK(h)): 97%
- remaining activity at 1 µM (Arg(h)): 87%
- remaining activity at 1 µM (IGF-1R(h)): 121%
- remaining activity at 1 µM (MEK1(h)): 111%
- remaining activity at 1 µM (p70S6K(h)): 77%
SMILES: NCCNc1cccc(-c2ccnc(Nc3cccc(Cl)c3)n2)c1 [AS105]
- effect on stimulation-induced movement to excitatory synapses [2]: without inhibiting
